Test results as given in the supplement of paper PMC10307832.

Experiments:
Assay in all cases: relative viability (nuclei count vs DMSO), 5 days (fraction); higher = more cells survive
[1] = compound: C1=CC=C(C(=C1)C2=CC=C(C=C2)C3=CSC4=C3C(=C(C(=O)N4)C#N)O)O + Nc1ncn([C@H]2C[C@H](O)[C@@H](CO)O2)c(=O)n1 [Decitabine] (partner 2 µM)
In short: (§1)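 The day after seeding in 1536-well plates, lung cancer cell lines were treated by pin tool with a single drug, or with a fixed anchor-drug dose together with five library-drug doses (not always all listed) in √10 steps. After 5 days, a combined fix-and-stain solution (final 0.05% Triton X-100, 1% formaldehyde, 1 ug/ml Hoechst) was added. Nuclei counted on 4× images gave relative viability as treated counts over vehicle counts, reported as the median of duplicate plates.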

TGX 221 + Olaparib = compound: CC1=CN2C(=O)C=C(N=C2C(=C1)C(C)NC3=CC=CC=C3)N4CCOCC4 [TGX 221] + O=C(c1cc(Cc2n[nH]c(=O)c3ccccc23)ccc1F)N1CCN(C(=O)C2CC2)CC1 [Olaparib] (partner 8 µM)
In short: as §1

[2] = compound: O=C(CCCCCCNC(=O)c1cnc(N(c2ccccc2)c2ccccc2)nc1)NO [Ricolinostat] + C[C@@H](Oc1cc(-c2cnn(C3CCNCC3)c2)cnc1N)c1c(Cl)ccc(F)c1Cl [Crizotinib] (partner 1 µM)
In short: as §1

[3] = compound: O=C(CCCCCCNC(=O)c1cnc(N(c2ccccc2)c2ccccc2)nc1)NO [Ricolinostat] + C[C@]1(O)C[C@@H](c2nc(-c3ccc4ccc(-c5ccccc5)nc4c3)c3c(N)nccn32)C1 [Linsitinib] (partner 1 µM)
In short: as §1

Row | Cell Line | relative viability ([1]; first compound 0.253 µM) | relative viability ([1]; first compound 0.8 µM) | relative viability ([1]; first compound 2.53 µM) | relative viability ([1]; first compound 8 µM) | relative viability (TGX 221 + Olaparib; first compound 0.08 µM) | relative viability (TGX 221 + Olaparib; first compound 0.253 µM) | relative viability (TGX 221 + Olaparib; first compound 0.8 µM) | relative viability (TGX 221 + Olaparib; first compound 2.53 µM) | relative viability (TGX 221 + Olaparib; first compound 8 µM) | relative viability ([2]; first compound 0.08 µM) | relative viability ([2]; first compound 0.253 µM) | relative viability ([2]; first compound 0.8 µM) | relative viability ([2]; first compound 2.53 µM) | relative viability ([3]; first compound 0.08 µM) | relative viability ([3]; first compound 0.253 µM) | relative viability ([3]; first compound 0.8 µM) | relative viability ([3]; first compound 2.53 µM) | relative viability ([1]; first compound 0.08 µM)
1 | HCC-366 | 0.46 | 0.343 | 0.332 | 0.358 | 0.331 | 0.303 | 0.407 | 0.344 | 0.357 | 0.49 | 0.464 | 0.428 | 0.188 | 0.454 | 0.67 | 0.478 | 0.454 | –
2 | HCC-827 | 0.361 | 0.277 | 0.351 | 0.313 | 0.647 | 0.55 | 0.615 | 0.526 | 0.0337 | 0.827 | 0.956 | 0.841 | 0.846 | 0.896 | 0.91 | 0.966 | 1.02 | 0.318
3 | HOP-62 | 0.238 | 0.221 | 0.238 | 0.211 | 0.408 | 0.435 | 0.536 | 0.707 | 0.585 | 0.912 | 0.855 | 0.924 | 0.87 | 1.03 | 0.991 | 0.943 | 0.644 | 0.218
4 | IA-LM | – | – | – | – | 0.866 | 0.857 | 0.846 | 0.858 | 0.799 | – | 0.763 | 0.784 | 0.578 | 0.335 | 0.529 | 0.594 | 0.259 | –
5 | LC-2-ad | 0.865 | 0.832 | 0.777 | 0.791 | 0.732 | 0.69 | 0.832 | 0.745 | 0.73 | – | 0.44 | 0.445 | 0.484 | 0.799 | 0.834 | 0.825 | 0.684 | 0.743
6 | LCLC-97TM1 | 0.267 | 0.226 | 0.252 | 0.226 | 0.403 | 0.423 | 0.364 | 0.304 | 0.31 | 0.363 | 0.435 | 0.277 | 0.286 | 0.171 | 0.199 | 0.231 | 0.172 | 0.237
7 | LCLC-103H | 0.734 | 0.695 | 0.697 | 0.79 | 0.747 | 0.738 | 0.793 | 0.764 | 0.717 | 0.951 | 1.02 | 1.04 | 1.05 | 0.925 | 1.06 | 1.09 | 1.11 | 0.799
8 | LK-2 | 0.228 | 0.236 | 0.343 | 0.314 | 0.65 | 0.752 | 0.551 | 0.632 | 0.862 | – | 0.259 | 0.213 | 0.253 | 0.629 | 0.645 | 0.613 | 0.524 | 0.178
9 | LOU-NH91 | 0.865 | 0.824 | 0.781 | 0.782 | 0.95 | 0.904 | 0.892 | 0.951 | 0.783 | – | 0.738 | 0.734 | 0.783 | – | 0.927 | 0.973 | 0.88 | 0.854
10 | LU99A | 0.523 | 0.961 | 0.777 | 1.02 | 0.251 | 0.258 | 0.297 | 0.251 | 0.249 | 0.581 | 0.604 | 0.38 | 0.409 | 0.495 | 0.473 | 0.455 | 0.419 | 0.894
11 | LXF-289 | 0.393 | 0.393 | 0.364 | 0.365 | 1.02 | 1.03 | 1.09 | 1.03 | 1.11 | 0.804 | 0.852 | 0.804 | 0.719 | 0.93 | 0.956 | 0.966 | 0.962 | 0.428
12 | NCI-H522 | 0.772 | 0.674 | 0.628 | 0.671 | 0.563 | 0.628 | 0.729 | 0.616 | 0.645 | – | – | – | – | – | – | – | – | 0.739
13 | NCI-H1299 | – | – | – | – | 0.971 | 0.952 | 1.02 | 1.03 | 0.943 | 0.928 | 0.917 | 0.974 | 0.891 | 0.984 | 0.898 | 0.959 | 0.74 | –
14 | NCI-H1395 | 0.801 | 0.703 | 0.702 | 0.745 | 0.452 | 0.438 | 0.411 | 0.399 | 0.393 | – | – | – | – | – | 1.2 | 1.05 | 1.04 | –
15 | NCI-H1563 | – | – | – | – | – | – | – | – | – | 0.862 | 0.822 | 0.732 | 0.689 | 1.19 | 1.12 | 1.08 | 0.982 | –
16 | NCI-H1648 | 0.537 | 0.493 | 0.478 | 0.458 | – | 0.452 | 0.802 | 0.764 | 0.842 | – | – | – | – | – | – | – | – | –
17 | NCI-H1650 | 0.535 | 0.496 | 0.384 | 0.367 | 0.684 | 0.704 | 0.954 | 0.719 | 0.642 | 1.04 | 0.926 | 0.714 | 0.784 | – | – | – | – | 0.456
18 | NCI-H1703 | – | – | – | – | 0.449 | 0.462 | 0.389 | 0.396 | 0.255 | 0.63 | 1.02 | 0.891 | 0.612 | – | 0.669 | 0.774 | 0.956 | –
19 | NCI-H1793 | 0.5 | 0.483 | 0.499 | 0.49 | 0.786 | 0.507 | 0.612 | 0.414 | 0.502 | – | – | – | – | – | 0.802 | 0.743 | 0.81 | 0.483
20 | NCI-H2170 | 0.467 | 0.467 | 0.454 | 0.446 | 0.625 | 0.522 | 0.625 | 0.526 | 0.608 | 1.16 | 1.17 | 1.16 | 1.23 | – | – | – | – | 0.551
21 | NCI-H2228 | – | – | – | – | 0.557 | 0.529 | 0.471 | 0.532 | 0.541 | 0.408 | 0.475 | 0.546 | 0.549 | 0.455 | 0.451 | 0.722 | 0.814 | –
22 | NCI-H2342 | 0.774 | 0.724 | 0.729 | 0.604 | 0.424 | 0.417 | 0.404 | 0.466 | 0.463 | – | – | – | – | – | – | – | – | 0.826
23 | SW 900 | 0.452 | 0.467 | 0.459 | 0.446 | – | 0.787 | 0.701 | 0.578 | 0.562 | – | – | – | – | – | – | – | – | –
